Read-outs that look alike come from different tables or passages of the source. Square brackets hold non-standard residues; d marks the D form. Ends that are not written are not given here. Peptide text beside a SMILES is read from it. Phe(4-NH2) = Nc1ccc(C[C@H](N)C(=O)O)cc1; pGlu = O=C1CC[C@@H](C(=O)O)N1; 12Ado = NCCCCCCCCCCCC(=O)O; Dab = NCC[C@H](N)C(=O)O; Aoc = NCCCCCCCC(=O)O
Tests used:
[1] = test system: mouse RAW 264.7 cells incubated with E. coli O113 LPS; details: RAW 264.7 cells with E. coli O113 LPS; concentration reversing LPS growth inhibition by 50%
Description: (§1) An in vitro LPS neutralization screening assay for evaluation of Domain III derived peptides was developed (as described in co-owned and co-pending U.S. patent application Ser. No. 08/306,473) which provides both a measure of efficacy of each peptide (EC50) and of the toxicity/growth inhibition of each peptide (IC50).
(§2) The cells were counted and their concentration adjusted to 2×10^5 cells/mL and 100 μL aliquots were added to each well of a 96-well microtitre plate. […] This incubation was performed in the absence or presence of peptides in varying concentrations between 25 ng/mL and 50 μg/mL. […] Cell proliferation was quantitatively measured by the addition of 1 μCi/well [^3H]-thymidine 5 hours after the time of initiation of the assay. After the 15-hour incubation, labeled cells were harvested onto glass fiber filters with a cell harvester (Inotech Biosystems, INB-384, Sample Processing and Filter Counting System, Lansing, Mich.).

mouse RAW 264.7 cells = test system: mouse RAW 264.7 cells
Description: as §1, §2

[2] = RAW 264.7 cell growth inhibited by 50%

Molecule	In Vitro LPS Neutralization EC50 [1]	IC50 (toxicity/growth inhibition of peptide) (mouse RAW 264.7 cells; [2])	IC50 (toxicity/growth inhibition of peptide) (mouse RAW 264.7 cells)
CC[C@H](C)[C@H](NC(=O)[C@H](CC(C)C)NC(=O)[C@H](Cc1c[nH]c2ccccc12)NC(=O)[C@H](CCN)NC(=O)[C@@H](N)CCN)C(=O)N[C@@H](CCC(N)=O)C(=O)N[C@@H](CC(C)C)C(=O)N[C@@H](CCN)C(=O)N[C@@H](CCN)C(N)=O [XMP 339P] (H-[Dab][Dab]WLIQL[Dab][Dab]-NH2)	NA (NA for EC50 means no evidence neutralization of LPS at up to 50 μg/ml)	NA (NA for IC50 means no evidence of decreased RAW cell growth at up to 50 μg/ml)	–
KKLLLLQKK-NH2 [XMP.384P]	NA (NA for EC50 means no evidence neutralization of LPS at up to 50 μg/ml)	NA (NA for IC50 means no evidence of decreased RAW cell growth at up to 50 μg/ml)	–
CC[C@@H](C)[C@@H](NC(=O)[C@@H](CC(C)C)NC(=O)[C@@H](Cc1c[nH]c2ccccc12)NC(=O)[C@@H](CCCCN)NC(=O)CCCCCCCN)C(=O)N[C@H](CCC(N)=O)C(=O)N[C@H](CC(C)C)C(=O)N[C@H](Cc1ccccc1)C(=O)N[C@H](Cc1c[nH]cn1)C(=O)N[C@H](CCCCN)C(=O)N[C@H](CCCCN)C(N)=O [XMP.416] (H-[Aoc][dK][dW][dL][dI][dQ][dL][dF][dH][dK][dK]-NH2)	4.67 ± 0.27 µg/mL	24.41 ± 0.78 µg/mL	–
CC[C@@H](C)[C@@H](NC(=O)[C@@H](CC(C)C)NC(=O)[C@@H](Cc1c[nH]c2ccccc12)NC(=O)[C@@H](CCCCN)NC(=O)CCCCCCCCCCCN)C(=O)N[C@H](CCC(N)=O)C(=O)N[C@H](CC(C)C)C(=O)N[C@H](Cc1ccccc1)C(=O)N[C@H](Cc1c[nH]cn1)C(=O)N[C@H](CCCCN)C(=O)N[C@H](CCCCN)C(N)=O [XMP.417] (H-[12Ado][dK][dW][dL][dI][dQ][dL][dF][dH][dK][dK]-NH2; C-terminus assumed)	3.88 ± 0.20 µg/mL	–	11.26 ± 1.30 µg/mL
KKWAIQLKK-NH2 (C-terminus assumed) [XMP.344P]	>25 µg/mL	NA (NA for IC50 means no evidence of decreased RAW cell growth at up to 50 μg/ml)	–
Ac-PWLIQLFHKK-NH2 [XMP.356P]	2.72 ± 0.02 µg/mL	–	>25 µg/mL
CC[C@H](C)[C@H](NC(=O)[C@H](CC(C)C)NC(=O)[C@@H](Cc1c[nH]c2ccccc12)NC(=O)[C@@H](CCCCN)NC(C)=O)C(=O)N[C@@H](CCC(N)=O)C(=O)N[C@@H](CC(C)C)C(=O)N[C@@H](Cc1ccccc1)C(=O)N[C@@H](Cc1c[nH]cn1)C(=O)N[C@H](CCCCN)C(=O)N[C@H](CCCCN)C(N)=O [XMP.364P]	>25 µg/mL	NA (NA for IC50 means no evidence of decreased RAW cell growth at up to 50 μg/ml)	–
CC[C@H](C)[C@H](NC(=O)[C@H](CC(C)C)NC(=O)[C@H](Cc1c[nH]c2ccccc12)NC(=O)[C@H](CCCCN)NC(C)=O)C(=O)N[C@@H](CCN)C(=O)N[C@@H](CC(C)C)C(=O)N[C@@H](Cc1ccccc1)C(=O)N[C@@H](Cc1c[nH]cn1)C(=O)N[C@@H](CCCCN)C(=O)N[C@@H](CCCCN)C(N)=O [XMP.372P] (Ac-KWLI[Dab]LFHKK-NH2)	>25 µg/mL	–	>25 µg/mL
CC[C@H](C)[C@H](NC(=O)[C@H](CC(C)C)NC(=O)[C@H](Cc1c[nH]c2ccccc12)NC(=O)[C@H](Cc1ccc(N)cc1)NC(=O)[C@@H](N)Cc1ccc(N)cc1)C(=O)N[C@@H](CCC(N)=O)C(=O)N[C@@H](CC(C)C)C(=O)N[C@@H](Cc1ccc(N)cc1)C(=O)N[C@@H](Cc1ccc(N)cc1)C(N)=O [XMP.340P] (H-[Phe(4-NH2)][Phe(4-NH2)]WLIQL[Phe(4-NH2)][Phe(4-NH2)]-NH2)	>50 µg/mL	NA (NA for IC50 means no evidence of decreased RAW cell growth at up to 50 μg/ml)	–
CC[C@H](C)[C@H](NC(=O)[C@H](CC(C)C)NC(=O)[C@H](Cc1c[nH]c2ccccc12)NC(=O)[C@@H](N)CCCCN)C(=O)N[C@@H](CCN)C(=O)N[C@@H](CC(C)C)C(=O)N[C@@H](Cc1ccccc1)C(=O)N[C@@H](Cc1c[nH]cn1)C(=O)N[C@@H](CCCCN)C(=O)N[C@@H](CCCCN)C(N)=O [XMP.371P] (H-KWLI[Dab]LFHKK-NH2)	NA (NA for EC50 means no evidence neutralization of LPS at up to 50 μg/ml)	–	>25 µg/mL
H-KKWLIQAKK-NH2 [XMP.345P]	>50 µg/mL	NA (NA for IC50 means no evidence of decreased RAW cell growth at up to 50 μg/ml)	–
CC[C@@H](C)[C@@H](NC(=O)[C@@H](CCC(N)=O)NC(=O)[C@@H](CC(C)C)NC(=O)[C@@H](CCCCN)NC(=O)[C@H](N)CCCCN)C(=O)N[C@H](C)C(=O)N[C@H](Cc1c[nH]c2ccccc12)C(=O)N[C@H](CCCCN)C(=O)N[C@H](CCCCN)C(N)=O [XMP.376P] (H-[dK][dK][dL][dQ][dI][dA][dW][dK][dK]-NH2)	>50 µg/mL	NA (NA for IC50 means no evidence of decreased RAW cell growth at up to 50 μg/ml)	–
CC[C@H](C)[C@H](NC(=O)[C@H](CC(C)C)NC(=O)[C@H](Cc1c[nH]c2ccccc12)NC(=O)[C@H](CCCCN)NC(=O)[C@@H]1CCCN1)C(=O)N[C@@H](CCC(N)=O)C(=O)N[C@@H](CC(C)C)C(=O)N[C@@H](CCCCN)C(=O)N[C@@H](CCCCN)C(N)=O [XMP.335P]	NA (NA for EC50 means no evidence neutralization of LPS at up to 50 μg/ml)	NA (NA for IC50 means no evidence of decreased RAW cell growth at up to 50 μg/ml)	–
H-RRWLIQLRR-NH2 [XMP.336P]	NA (NA for EC50 means no evidence neutralization of LPS at up to 50 μg/ml)	NA (NA for IC50 means no evidence of decreased RAW cell growth at up to 50 μg/ml)	–
CC[C@H](C)[C@H](NC(=O)[C@H](CC(C)C)NC(=O)[C@@H](N)Cc1c[nH]c2ccccc12)C(=O)N[C@@H](CCC(N)=O)C(=O)N[C@@H](CC(C)C)C(=O)N[C@@H](Cc1ccccc1)C(=O)N[C@@H](Cc1c[nH]cn1)C(=O)N[C@@H](CCCCN)C(N)=O [XMP.303P]	11.79 ± 0.85 µg/mL	NA (NA for IC50 means no evidence of decreased RAW cell growth at up to 50 μg/ml)	–
CC[C@H](C)[C@@H]1NC(=O)[C@H](C)NC(=O)[C@H](Cc2c[nH]c3ccccc23)NC(=O)[C@H](CCCCN)NC(=O)[C@H](CCCCN)NC(=O)[C@H](CCCCN)NC(=O)[C@H](CC(C)C)NC(=O)[C@H](CCC(N)=O)NC1=O [XMP.408P] (cyclo(LKKKWAIQ))	NA (NA for EC50 means no evidence neutralization of LPS at up to 50 μg/ml)	NA (NA for IC50 means no evidence of decreased RAW cell growth at up to 50 μg/ml)	–
CC[C@H](C)[C@H](NC(=O)[C@H](CC(C)C)NC(=O)[C@H](Cc1c[nH]c2ccccc12)NC(=O)[C@H](N)CS)C(=O)N[C@@H](CCC(N)=O)C(=O)N[C@@H](CC(C)C)C(=O)N[C@@H](Cc1ccccc1)C(=O)N[C@@H](Cc1c[nH]cn1)C(=O)N[C@@H](CCCCN)C(=O)N[C@@H](CCCCN)C(N)=O [XMP.359P] (H-[dC]WLIQLFHKK-NH2; N-terminus assumed)	7.31 ± 1.26 µg/mL	–	>25 µg/mL
H-KKLLQLLKK-NH2 [XMP.382P]	NA (NA for EC50 means no evidence neutralization of LPS at up to 50 μg/ml)	NA (NA for IC50 means no evidence of decreased RAW cell growth at up to 50 μg/ml)	–
XMP.341P ([pGlu][pGlu]WLIQL[pGlu][pGlu]; not fully specified)	>50 µg⁻¹ mL⁻¹	NA/NA (NA for IC50 means no evidence of decreased RAW cell growth at up to 50 μg/ml)	–
H-KSKVPWLIQLFHKK-NH2 [XMP.393P]	>25 µg/mL	NA (NA for IC50 means no evidence of decreased RAW cell growth at up to 50 μg/ml)	–
CC[C@@H](C)[C@@H](NC(=O)[C@@H](CCC(N)=O)NC(=O)[C@@H](CC(C)C)NC(=O)[C@H](N)CCCCN)C(=O)N[C@H](CC(C)C)C(=O)N[C@H](Cc1c[nH]c2ccccc12)C(=O)N[C@H](CCCCN)C(=O)N[C@H](CCCCN)C(N)=O [XMP.374P]	13.97 ± 2.02 µg/mL	NA (NA for IC50 means no evidence of decreased RAW cell growth at up to 50 μg/ml)	–
H-KKLLLLLKK-NH2 [XMP.385P]	2.56 ± 0.23 µg/mL	–	>25 µg/mL
H-HHWLIQLHH-NH2 [XMP 337P]	>50 µg/mL	NA (NA for IC50 means no evidence of decreased RAW cell growth at up to 50 μg/ml)	–

Reference: patent US6664231B1, “Anti-fungal peptides” (priority 1993, dated 2003)
